Data reported in ChEMBL document CHEMBL4613264, “Design, Synthesis, and Biological Evaluation of New Peripheral 5HT2A Antagonists for Nonalcoholic Fatty Liver Disease” (J Med Chem, 2020).

How the values were obtained:
[1] = molecular target: 5-hydroxytryptamine receptor 2A (Homo sapiens, UniProt P28223); test: Antagonist activity at 5HT2A receptor (unknown origin) expressed in HEK293 cells assessed as inhibition of serotonin hydrochloride-induced calcium flux preincubated for 1 hr followed by serotonin hydrochloride addition by calcium 6 dye based FLIPR assay; type: functional, cell-based
Chain of 5-hydroxytryptamine receptor 2A (P28223 whole entry): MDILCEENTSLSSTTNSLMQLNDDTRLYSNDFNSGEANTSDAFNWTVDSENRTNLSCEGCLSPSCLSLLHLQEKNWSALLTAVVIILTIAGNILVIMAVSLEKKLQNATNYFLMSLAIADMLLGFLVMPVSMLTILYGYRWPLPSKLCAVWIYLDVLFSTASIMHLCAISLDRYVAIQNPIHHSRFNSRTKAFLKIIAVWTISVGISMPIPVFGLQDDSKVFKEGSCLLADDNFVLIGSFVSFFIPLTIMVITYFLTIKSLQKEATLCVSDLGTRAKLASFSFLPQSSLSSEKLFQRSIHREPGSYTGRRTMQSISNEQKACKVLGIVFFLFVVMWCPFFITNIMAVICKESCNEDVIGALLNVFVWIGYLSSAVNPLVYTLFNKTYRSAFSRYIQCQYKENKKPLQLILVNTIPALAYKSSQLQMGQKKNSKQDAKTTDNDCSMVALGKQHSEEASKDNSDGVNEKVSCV

[2] = Permeability of the compound by PAMPA; type: ADME; settings: read-out: permeability
[3] = Plasma concentration in ICR mouse at 5 mg/kg, iv measured after 0.5 hrs by LC-MS/MS analysis; type: ADME, organism-based
[4] = Drug level in ICR mouse brain at 5 mg/kg, iv measured after 0.5 hrs by LC-MS/MS analysis; type: ADME, organism-based; settings: read-out: Drug uptake
[5] = Ratio of drug level in brain to plasma of ICR mouse at 5 mg/kg, iv measured after 0.5 hrs by LC-MS/MS analysis; type: ADME, organism-based; settings: read-out: BPR

Compound	IC50 [1] [µM]	other results
CC(C)COc1ccc(CNC(=O)N(Cc2ccc(F)cc2)C2CCN(S(C)(=O)=O)CC2)cc1	2.02	–
CC(C)COc1ccc(CNC(=O)N(Cc2ccc(F)cc2)C2CCN(C(=S)NC(C)C)CC2)cc1	1.13	–
CN1CCC(N(Cc2ccc(F)cc2)C(=O)NCc2ccc(OCC(O)CN3CCC(c4noc5cc(F)ccc45)CC3)cc2)CC1 (stereo not given)	0.00039	Papp [2]: 4.79 ×10⁻⁶ cm/s; concentration at 0.5 h [3]: 455 ng/mL; concentration at 0.5 h [4]: 741 ng/g; Kp at 0.5 h [5]: 1.63
CN1CCC(N(Cc2ccc(F)cc2)C(=O)NCc2ccc(OCC(O)CN3CCN(C(=O)OC(C)(C)C)CC3)cc2)CC1 (stereo not given)	0.00194	–
CN1CCC(N(Cc2ccc(F)cc2)C(=O)NCc2ccc(OCC(O)CN3CCN(c4nsc5ccccc45)CC3)cc2)CC1 (stereo not given)	0.00087	–
CC(C)COc1ccc(CNC(=O)N(Cc2ccc(F)cc2)C2CCN(C(=O)CCC(=O)O)CC2)cc1	0.317	–
